Laboratory results as given in article PMC7269481, “ZN148 Is a Modular Synthetic Metallo-β-Lactamase Inhibitor That Reverses Carbapenem Resistance in Gram-Negative Pathogens In Vivo” (Antimicrobial Agents and Chemotherapy, 2020).
“And” between values parts separate entries of the source, which are not always exact repeats. Identical values can stand only once. Like-named read-outs stand apart in the source and are kept apart here. One block for each compound: values may come before it.

Key:
[1] = system: NDM-1-producing A. baumannii strains (n=6); experiment: Carbapenem MIC, NDM-1-producing A. baumannii; format: cell-based; details: carbapenem alone or in combination with 50µM ZN148; one value per strain (n=6)
Experimental: (§1) MICs of carbapenems alone and in combination with inhibitors were determined by broth microdilution according to the Clinical and Laboratory Standards Institute (CLSI) guidelines ([48]) using either premade plates (TREK Diagnostic Systems/Thermo Fisher Scientific, East Grinstead, United Kingdom) with meropenem or in-house-prepared plates with meropenem, imipenem, and doripenem. ZN148 and other inhibitors were tested at a fixed concentration of 50 μM. Cation-adjusted Mueller-Hinton medium (TREK Diagnostic Systems/Thermo Fisher Scientific; Becton Dickinson, Franklin Lakes, NJ) were used as growth medium. The plates were incubated for 20 h at 37°C. ZN148, ZN222, ZN223, ZN228, and TPA were initially tested in combination with meropenem using two indicator strains: NDM-1-producing K. pneumoniae ([49], [50]) and VIM-2-producing P. aeruginosa ([51]). The activity of ZN148 were subsequently tested against two extended strain collections: (i) in combination with meropenem against MBL-producing Enterobacterales (n = 62), MBL-producing P. aeruginosa (n = 9) and MBL- and class D carbapenemase-coproducing Enterobacterales (n = 5) from the strain collection at the Norwegian National Advisory Unit on Detection of Antimicrobial Resistance and (ii) in combination with meropenem, imipenem, and doripenem against globally collected MBL-producing E. coli (n = 87), K. pneumoniae (n = 85), P. aeruginosa (n = 52), and A. baumannii (n = 6), MBL- and class A/D carbapenemase-coproducing E. coli (n = 11), K. pneumoniae (n = 15) and A. baumannii (n = 7) at IHMA Europe, Sàrl, Switzerland. E. coli ATCC 25922 and P. aeruginosa ATCC 27853 were used as quality control strains. The MBL inhibitors were also tested for intrinsic antibacterial activity against the strains.

[2] = system: class A carbapenemase (KPC)-producing E. cloacae; experiment: Carbapenem MIC, class A carbapenemase-producing E. cloacae; format: cell-based; details: carbapenem alone or with 50µM ZN148
Experimental: as §1

[3] = system: E. coli co-producing MBLs and class A/D serine carbapenemases; experiment: Carbapenem MIC, E. coli co-producing MBLs and class A/D serine carbapenemases; format: cell-based; details: carbapenem alone or with 50µM ZN148
Experimental: as §1

[4] = system: A. baumannii co-producing MBLs and class A/D serine carbapenemases; experiment: Carbapenem MIC, A. baumannii co-producing NDM-1 and class D carbapenemases; format: cell-based; details: carbapenem alone or with 50µM ZN148, one value per strain
Experimental: as §1

[5] = system: K. pneumoniae co-producing MBLs and class A/D serine carbapenemases; experiment: Carbapenem MIC, K. pneumoniae co-producing MBLs and class D carbapenemases; format: cell-based; details: carbapenem alone or with 50µM ZN148, one value per strain
Experimental: as §1

[6] = system: class A carbapenemase (KPC)-producing E. coli; experiment: Carbapenem MIC, class A carbapenemase-producing E. coli; format: cell-based; details: carbapenem alone or with 50µM ZN148
Experimental: as §1

VIM-2 [7] = biological target: T1, VIM-2 (Escherichia coli, UniProt Q5U7L7); format: biochemical; details: VIM-2 preincubated with inhibitor
T1 construct: made in house
Experimental: VIM-2 (0.4 μM) was preincubated on ice for 30 min with or without ZN148. Complete protein unfolding was archived in 50 mM HEPES buffer (pH 7.5) supplemented with 1 μM ZnSO4 (Sigma-Aldrich) and 8 M urea (Merck, Darmstadt, Germany). Refolding was achieved by a stepwise buffer exchange using centrifugal cutoff filters (10 kDa; Merck) and decreasing concentrations of urea ([…] in 50 mM HEPES buffer [pH 7.5]). VIM-2 was diluted to a final concentration of 1 nM, and the enzyme activity was measured by adding nitrocefin (Merck) to a final concentration of 50 μM.

VIM-2 [8] = biological target: T1, VIM-2; format: biochemical; details: after incubation with inhibitor and its removal (PD-10); 100 μM ZnSO4
Experimental: For reversibility of enzyme activity after incubation with ZN148, 3 ml of VIM-2 or NDM-1 was diluted with or without ZN148 in Chelex HEPES buffer (pH 7.5) and subsequently incubated for 1 h on ice. Then, 2.5 ml of each solution was loaded onto an equilibrated PD-10 column (GE Healthcare, Pittsburgh, PA), washed with 1 ml, and eluted with 1.5 ml of Chelex HEPES buffer (pH 7.5), respectively. Samples spiked and not spiked with inhibitor were diluted to a final enzyme concentration of 1 nM VIM-2 and 3 nM NDM-1. The initial reaction velocity was determined by adding nitrocefin (Merck) for VIM-2 or imipenem (Sigma-Aldrich) for NDM-1 at final concentrations of 50 and 100 μM, respectively. The initial enzyme reactions were recorded at 25°C. Inhibitor and enzyme alone were included as controls. All measurements were performed at least in duplicates. For enzyme restorability, pre- and postcolumn samples were supplemented with ZnSO4 (Sigma-Aldrich) to a final concentration of 100 μM and allowed to incubate for 5 min at 25°C. The initial enzyme velocity was then determined as described above.

[9] = read-out: affinity toward Zn^2+; cited from earlier work
[10] = system: NDM-1-producing K. pneumoniae K66-45; experiment: Meropenem MIC, broth microdilution, indicator strain K66-45; format: cell-based; details: meropenem alone or in combination with 50 μM of the labelled inhibitor
Experimental: as §1

HepG2 cells = experiment: In vitro toxicity, alamarBlue viability; format: cell-based, human; details: 24 h
Experimental: The human hepatoblastoma HepG2 cell line (HB-8065; ATCC, Manassas, VA) was cultured in DMEM-GlutaMAX (5.5 mM glucose; Thermo Fisher) supplemented with 10% fetal bovine serum (Sigma-Aldrich), streptomycin (100 μg/ml; Gibco/Thermo Fisher), and penicillin (100 U/ml; Gibco/Thermo Fisher) at 37°C in 5% CO2. For viability assays, cells were seeded in white 96-well Nunclon plates (Sigma-Aldrich) at a density of 20,000 cells/well and left overnight to adhere. ZN148 and TPA (Sigma-Aldrich, Darmstadt, Germany) dissolved in dimethyl sulfoxide (DMSO; (Sigma-Aldrich) were added to the white 96-well plates containing 20,000 HepG2 cells/well at concentrations ranging from 1 to 1 × 10^−3 mM (a DMSO concentration kept below 1%), followed by incubation for 24 h at 37°C in 5% CO2. After 24 h, alamarBlue cell viability reagent (Thermo Fisher, Carlsbad, CA) was added (10% final concentration), followed by incubation for 4 h at 37°C. The proportion of viable cells in each well was measured in a fluorescence plate reader (Clariostar; BMGlabtech, Germany) at excitation 550 nm/emission 603 nm ([56]). Data from eight replicates were fitted by nonlinear regression to determine IC50 values using Prism (GraphPad Software, Inc.).

[11] = system: VIM-2-producing P. aeruginosa K34-7; experiment: Meropenem MIC, broth microdilution, indicator strain K34-7; format: cell-based; details: meropenem alone or in combination with 50 μM of the labelled inhibitor
Experimental: as §1

VIM-2 [12] = biological target: T1, VIM-2; experiment: Time-dependent inactivation kinetics of purified VIM-2 (nitrocefin); format: biochemical
Experimental: (§2) Protein expression and purification of NDM-1 and VIM-2 were performed as previously described ([36], [43], [57]). Stock solutions of purified NDM-1 and VIM-2 were prepared in 50 mM HEPES buffer (pH 7.5; Merck). Inhibition of NDM-1 and VIM-2 were determined for ZN148 and the analogues ZN222, ZN223, and ZN228 at different concentrations of inhibitor after preincubation times of 2, 8, 15, 25, and 32 min in 50 mM HEPES buffer (pH 7.5) supplemented with 1 μM ZnSO4 (Sigma-Aldrich) and bovine serum albumin (Sigma-Aldrich; final concentration, 2 μg/ml) at 25°C. Concentrations of 1 nM VIM-2 and 30 nM NDM-1 were used, and the reaction was initiated by the addition of 30 μM nitrocefin (Merck) for VIM-2 or 100 μM imipenem (Sigma-Aldrich) for NDM-1. The reaction was measured at 482 nm (VIM-2) or […] (NDM-1) in either standard 96-well plates (Thermo Fisher Scientific) for VIM-2 or UV-transparent 96-well plates (Corning, Kennebunk, ME) for NDM-1 at 25°C in a SpectraMax Plus plate reader (Molecular Devices). All of the enzyme and substrate concentrations indicated are the final concentrations in the assay. The enzyme activity as a percentage was calculated based on the initial velocity and compared to the control without inhibitor compound. All tests were performed at least in duplicates.
(§3) The observed rate constant (kobs) per inhibitor concentration was calculated from the slope of a semilog plot of the enzyme activity in percent versus preincubation time.
(§4) By fitting these values, the irreversible kinetic parameters maximum inactivation rate (kinact) and the inhibitor concentration that produces half-maximal rate of inactivation (KI) were obtained. Finally, the inhibitors were characterized by calculating kinact/KI. Where no saturation curve could be observed, KI and kinact were determined from the linear part of plot 1/kobs versus 1/[I].

NDM-1 = biological target: T2, NDM-1 (Klebsiella pneumoniae, UniProt C7C422); experiment: Time-dependent inactivation kinetics of purified NDM-1 (imipenem); format: biochemical
T2 construct: made in house
Experimental: as §2, §3, §4

[13] = Enterobacter cloacae, KPC-3 strain, read-out: MIC
[14] = Escherichia coli, KPC-3 strain, read-out: MIC
[15] = KPC-2 strains, one value per strain

T2 sequence (C7C422 29-270, looked up): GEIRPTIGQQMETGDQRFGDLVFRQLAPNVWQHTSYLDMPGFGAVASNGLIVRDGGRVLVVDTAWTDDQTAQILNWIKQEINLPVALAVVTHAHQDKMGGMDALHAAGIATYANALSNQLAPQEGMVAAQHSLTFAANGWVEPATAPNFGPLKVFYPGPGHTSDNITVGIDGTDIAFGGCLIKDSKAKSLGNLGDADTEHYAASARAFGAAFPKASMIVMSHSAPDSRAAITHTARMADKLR

MIC [1]: > 64 µg/mL
MIC [2, 13]: 2 µg/mL
MIC ([3]; NDM-1 + GES-2 strain): 64 µg/mL
MIC ([3]; NDM-5 + OXA-48 strain): > 64 µg/mL
MIC ([3]; NDM-5 + OXA-181 strains, one value per strain): 64 µg/mL
MIC ([3]; NDM-5 + OXA-232 strains, one value per strain): > 64 µg/mL
MIC ([4]; NDM-1 + OXA-23-like strains): > 64 µg/mL
MIC ([4]; NDM-1 + OXA-24-like, OXA-58-like strains): > 64 µg/mL
MIC ([5]; NDM-1 + OXA-232 strains): > 64 µg/mL
MIC ([5]; NDM-5 + OXA-181 strains): > 64 µg/mL
MIC ([6]; Escherichia coli, KPC-2 strains, one value per strain, read-out: MIC): 4 µg/mL
MIC [6, 14]: 4 µg/mL
MIC [6, 15]: 2 µg/mL
SMILES: C[C@@H](O)[C@H]1C(=O)N2C(C(=O)O)=C(S[C@@H]3CN[C@H](CNS(N)(=O)=O)C3)[C@H](C)[C@H]12 [DOR, doripenem]

enzyme activity after unfolding and stepwise refolding, of control activity (VIM-2 [7]): > 80%
SMILES: O=C(O)CN(CCN(CC(=O)O)CC(=O)O)CC(=O)O [EDTA]
MBL activity restored by addition of exogenous zinc, compared to untreated control (VIM-2 [8]): complete or nearly complete (∼80%) restoration of activity

MIC [1]: > 64 µg/mL
MIC ([2]; Enterobacter cloacae, KPC-2 strains, one value per strain, read-out: MIC): 8 µg/mL
MIC [2, 13]: 16 µg/mL
MIC [2, 15]: 16 µg/mL
MIC ([3]; NDM-1 + GES-2 strain): 16 µg/mL
MIC ([3]; NDM-5 + OXA-48 strain): 32 µg/mL
MIC ([4]; NDM-1 + OXA-23-like strains): > 64 µg/mL
MIC ([5]; NDM-1 + OXA-232 strains): > 64 µg/mL
MIC ([5]; NDM-5 + OXA-181 strains): > 64 µg/mL
MIC [6, 14]: 8 µg/mL
SMILES: C[C@@H](O)[C@H]1C(=O)N2C(C(=O)O)=C(SCCN=CN)C[C@H]12 [IPM, imipenem]

meropenem MIC [10]: 0.125 µg/mL
meropenem MIC [11]: 1 µg/mL
SMILES: c1ccc(CN(Cc2ccccn2)Cc2ccccn2)nc1 [TPA, Tris-picolylamine]
Kd [9]: 0.01 nM
IC50 (HepG2 cells): 9.8 µM and 9.75 µM

meropenem MIC [10]: 32 µg/mL
meropenem MIC [11]: 32 µg/mL
SMILES: CN(C[C@H](O)[C@@H](O)[C@H](O)[C@H](O)CO)C(=O)c1ccc(CN(Cc2ccccc2)Cc2ccccc2)nc1 [ZN222]

SMILES: CN(C[C@H](O)[C@@H](O)[C@H](O)[C@H](O)CO)C(=O)c1ccc(CN(Cc2ccccc2)Cc2ccccn2)nc1 [ZN223]
meropenem MIC [10]: 32 µg/mL
kinact (VIM-2 [12]): 0.000617 s⁻¹
kinact/KI (VIM-2 [12]): 11.7 M⁻¹ s⁻¹
meropenem MIC [11]: 32 µg/mL
kinact (NDM-1): 0.000633 s⁻¹
kinact/KI (NDM-1): 1 M⁻¹ s⁻¹

SMILES: CN(C[C@H](O)[C@@H](O)[C@H](O)[C@H](O)CO)C(=O)c1ccc(CN(Cc2ccccn2)Cc2ccccn2)cc1 [ZN228]
meropenem MIC [10]: 32 µg/mL
kinact (VIM-2 [12]): 0.000567 s⁻¹
kinact/KI (VIM-2 [12]): 23.3 M⁻¹ s⁻¹
meropenem MIC [11]: 32 µg/mL
kinact (NDM-1): 0.00127 s⁻¹
kinact/KI (NDM-1): 1.83 M⁻¹ s⁻¹
